Values quoted from earlier work, collected in patent US20140080710A1, “COMPOSITIONS WITH HOT MELT RESIN MATRIX” (AgroFresh Inc., priority 2012, published 2014).

Test system: ethylene receptor
Settings: compared with ethylene

Question: Which “affinity for the receptor relative to that of ethylene” value does the source give for `CC1=CC1` [Sample 1-MCP, 1-methylcyclopropene] here?
Answer: The value was “approximately 10 times”.
